The source of these data is US9090593B2, “Bicyclic compounds as Pim inhibitors” (AMGEN INC., priority 2010, dated 2015).

In test [1] the target is T1, full length recombinant Pim-1 protein (Homo sapiens, UniProt P11309).
T1 construct: by full length recombinant Pim-1, Pim-2, or Pim-3 protein; hexahistidine tag followed by a thrombin cleavage site (N); made in house; host or cells: Sf9 (baculovirus) or E. coli (pET28)
Nature of the test: Pim-1 enzyme assay (HTRF, phosphorylation of biotinylated-BAD (S112) peptide). The class given is biochemical. The following applies: enzyme assay, Pim-1; read-out: Pim_1_IC50. Put shortly:
(§1)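 Full-length human Pim-1 or Pim-2 (His6-tagged, Sf9 or E. coli expressed, Ni and Superdex 75 purified) phosphorylates biotinylated BAD (S112) peptide in 60 mM Hepes pH 7.0, 0.05% BSA, 2 mM DTT. Stopped with 3 mM EDTA; HTRF read with Eu anti-phospho-BAD and streptavidin-APC. IC50 from 4-parameter logistic fit of percent of control.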

The target in test [2] is T2, full length recombinant Pim-2 protein (Homo sapiens, UniProt Q9P1W9).
T2 construct: by full length recombinant Pim-1, Pim-2, or Pim-3 protein; hexahistidine tag followed by a thrombin cleavage site (N); made in house; host or cells: Sf9 (baculovirus) or E. coli (pET28)
T2 sequence (Q9P1W9 whole entry): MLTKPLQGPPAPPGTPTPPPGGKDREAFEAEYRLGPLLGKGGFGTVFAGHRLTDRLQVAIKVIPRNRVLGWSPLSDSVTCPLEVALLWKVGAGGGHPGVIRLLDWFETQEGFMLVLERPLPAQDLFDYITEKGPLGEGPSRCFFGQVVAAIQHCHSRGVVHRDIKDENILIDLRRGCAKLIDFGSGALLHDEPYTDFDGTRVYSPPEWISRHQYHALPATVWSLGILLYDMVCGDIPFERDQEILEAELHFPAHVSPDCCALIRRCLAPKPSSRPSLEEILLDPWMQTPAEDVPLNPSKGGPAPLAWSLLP
Nature of the test: Pim-2 enzyme assay (HTRF, phosphorylation of biotinylated-BAD (S112) peptide). The class given is biochemical. The following applies: enzyme assay, Pim-2; read-out: Pim2_IC50. A digest of the protocol:
as §1
(In general: TR-FRET usually uses a lanthanide donor and a delayed reading to cut background.)

In test [3] the target is T3, full length recombinant Pim-3 protein (Homo sapiens, UniProt Q86V86).
T3 construct: by full length recombinant Pim-1, Pim-2, or Pim-3 protein; purchased Millipore (UK)
Nature of the test: Pim-3 enzyme assay (HTRF, phosphorylation of biotinylated-BAD (S112) peptide). The class given is biochemical. The following applies: read-out: Pim3 IC50. A digest of the protocol:
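Full-length recombinant Pim-3 phosphorylates biotinylated BAD (S112) peptide in 60 mM Hepes pH 7.0, 0.05% BSA, 2 mM DTT; reaction stopped with 3 mM EDTA. Phospho-BAD detected by HTRF (Eu anti-phospho-BAD S112 antibody, streptavidin-APC). IC50 from percent-of-control values fitted to a 4-parameter logistic model.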

For test [4], the target named is T4, Pim-1 stably transfected into the U2OS human osteogenic sarcoma line (Homo sapiens, UniProt P11309).
T4 construct: expressed in transfected cells; host or cells: U2OS human osteogenic sarcoma line
T4 sequence (P11309 whole entry): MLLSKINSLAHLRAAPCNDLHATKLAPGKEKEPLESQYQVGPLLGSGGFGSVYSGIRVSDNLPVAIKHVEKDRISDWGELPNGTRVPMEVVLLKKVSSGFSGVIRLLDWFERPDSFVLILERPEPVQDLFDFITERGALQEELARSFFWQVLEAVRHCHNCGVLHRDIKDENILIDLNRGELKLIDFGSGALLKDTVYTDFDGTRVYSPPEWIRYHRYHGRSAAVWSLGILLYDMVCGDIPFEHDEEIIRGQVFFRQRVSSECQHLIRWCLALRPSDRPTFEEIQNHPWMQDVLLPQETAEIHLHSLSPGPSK
Nature of the test: Pim cell assay, phospho-BAD normalized against total BAD, U2OS stably transfected with Pim-1. The class given is cell-based. The following applies: read-out: Pim1_Cell_IC50. Put shortly:
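U2OS cells stably expressing Pim-1 or Pim-2 were plated overnight at 37 °C, then dosed over a 10-point curve (final 0.3% DMSO; DMSO alone as high control). Lysates assayed for phospho- and total BAD by Meso Scale immunoassay; % phosphoprotein = (2×phospho)/(phospho+total)×100.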

Setting [5] is: U2OS cells stably transfected with Pim-1, phospho-BAD, high dose […].

Where two headings read alike, the source gives them in different places.

T1 sequence (P11309 whole entry): as above

On to `COc1cccc(-c2ccc3[nH]nc(-c4cncc(O[C@@H]5CCCNC5)n4)c3c2)n1` [Example 137, 5-(6-methoxy-2-pyridinyl)-3-(6((3R)-3-piperidinyloxy)-2-pyrazinyl)-1H-indazole], for which the IC50 in test [1] is 8 nM; in test [2], 63 nM; in test [3] it was 6 nM; in test [4] (setting [5]), 585 nM.
For `CC(C)Oc1nccc(-c2ccc3[nH]nc(-c4cncc(O[C@@H]5CCCNC5)n4)c3c2)n1` [Example 153, 5-(2-(1-methylethoxy)-4-pyrimidinyl)-3-(6-((3R)-3-piperidinyloxy)-2-pyrazinyl)-1H-indazole], the IC50 came out at 12 nM in test [1], 165 nM in test [2], 27 nM in test [3] and 174 nM in test [4] (setting [5]).
For `c1ccc(-c2ccc3[nH]nc(-c4cncc(O[C@@H]5CCCNC5)n4)c3c2)cc1` [Example 134, 5-phenyl-3-(6-((3R)-3-piperidinyloxy)-2-pyrazinyl)-1H-indazole], in that order: 7 nM, 37 nM, 14 nM and 316 nM.
In the case of `NC1CCN(c2cncc(-c3c[nH]c4ccc(-c5c(F)cccc5F)nc34)c2)CC1` [Example 32, 1-(5-(5-(2,6-difluorophenyl)-1H-pyrrolo[3,2-b]pyridin-3-yl)pyridin-3-yl)piperidin-4-amine], the IC50 in test [1] amounted to 19 nM; in test [2], 586 nM; in test [3], 67 nM; in test [4] it was 907 nM.
Turning to `Fc1cccnc1-c1ccc2[nH]nc(-c3cncc(O[C@@H]4CCCNC4)n3)c2c1` [Example 124, 5-(3-fluoro-2-pyridinyl)-3-(6-((3R)-3-piperidinyloxy)-2-pyrazinyl)-1H-indazole], the IC50 was found to be 11 nM in test [1], 58 nM in test [2], 11 nM in test [3] and 402 nM in test [4] (setting [5]).
Regarding `Fc1cccc(F)c1-c1ccc2[nH]nc(-c3cncc(O[C@H]4CNC[C@@H](F)C4)n3)c2c1` [Example 196, 5-(2,6-difluorophenyl)-3-(6-(((3R,5S)-5-fluoro-3-piperidinyl)oxy)-2-pyrazinyl)-1H-indazole], the IC50 in test [1] was determined as 4 nM; in test [2], 19 nM; in test [3] it was 6 nM; in test [4] (setting [5]), 146 nM.
The matching figures for `Fc1cccc(F)c1-c1ccc2[nH]cc(-c3cncc(NC4CCCCC4)n3)c2c1` [Example 202, N-cyclohexyl-6-(5-(2,6-difluorophenyl)-1H-indol-3-yl)-2-pyrazinamine]: 21 nM, 414 nM, 51 nM and 8850 nM.
The matching figures for `Fc1cccc(F)c1-c1ccc2[nH]nc(-c3cncc(O[C@@H]4CNCC[C@H]4F)n3)c2c1` (single isomer, unassigned) [Example 19, 5-(2,6-difluorophenyl)-3-(6-(trans-4-fluoropiperidin-3-yloxy)pyrazin-2-yl)-1H-indazole]: 5 nM, 28 nM, 7 nM and 254 nM.
For `c1cnnc(-c2ccc3[nH]nc(-c4cncc(O[C@@H]5CCCNC5)n4)c3c2)c1` [Example 149, 3-(6-((3R)-3-piperidinyloxy)-2-pyrazinyl)-5-(3-pyridazinyl)-1H-indazole], in that order: 6 nM, 48 nM, 7 nM and 292 nM.
On to `NC1CCN(c2cncc(-c3n[nH]c4ccc(-c5ccnc6cc(F)ccc56)cc34)n2)CC1` [Example 110, 1-(6-(5-(7-fluoro-4-quinolinyl)-1H-indazol-3-yl)-2-pyrazinyl)-4-piperidinamine], for which the IC50 in test [1] was 8 nM; in test [2], 151 nM; in test [3] it was 23 nM; in test [4] (setting [5]), 776 nM.
